pEC50: −log10 of the molar value.
Tested on: Nrf2 transcriptional activity (pARE-Luc reporter) in HepG2 cells
Assay: In vitro Nrf2 transcriptional activity measurement by ARE-dependent reporter assay in HepG2 cell
Assay type: cell-based, human
Details: Homo sapiens; HepG2 cells transfected with pARE-Luc, 4 hours at 37° C.; luciferase activity of Example 1-54 or Example 17-23 at 3.75 μM defined as 100%
In short: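 HepG2 cells transfected with pGL4.37 (pARE-Luc), replated onto compound and incubated 4 h at 37° C; luciferase read by Bright-Glo luminescence. Response normalized to 100% set by a reference compound at 3.75 μM; EC50 from dose-response curve.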

| pEC50 | Structure (SMILES) |
| --- | --- |
| 8.03 | CC(C)Sc1cc(Cl)c(C(=O)N2COc3c(cccc3-c3ccc(C(=O)O)c(N4CCOCC4)c3)C2)c(Cl)c1 [Compound 16-10, 4-[3-(2,6-Dichloro-4-propan-2-ylsulfanylbenzoyl)-2,4-dihydro-1,3-benzoxazin-8-yl]-2-morpholin-4-ylbenzoic acid] |
| 8.12 | COCCN1CCC(c2cc(Cl)c(C(=O)N3COc4c(cccc4-c4cc(N5CCOCC5)c(C(=O)O)cc4F)C3)c(Cl)c2)CC1 [Compound 16-11, 4-[3-[2,6-Dichloro-4-[1-(2-methoxyethyl)piperidin-4-yl]benzoyl]-2,4-dihydro-1,3-benzoxazin-8-yl]-5-fluoro-2-morpholin-4-ylbenzoic acid] |
| 8.01 | O=C(O)c1cc(F)c(-c2cccc3c2OCN(C(=O)c2c(Cl)cc(C4COC4)cc2Cl)C3)cc1N1CCOCC1 [Compound 16-12, 4-[3-[2,6-Dichloro-4-(oxetan-3-yl)benzoyl]-2,4-dihydro-1,3-benzoxazin-8-yl]-5-fluoro-2-morpholin-4-ylbenzoic acid] |
| 8.36 | C[C@@H]1CN(C)CCN1c1cc(Cl)c(C(=O)N2COc3c(cccc3-c3cc(N(C)[C@@H]4CCOC4)c(C(=O)O)cc3F)C2)c(Cl)c1 [Compound 16-13, 4-[3-[2,6-Dichloro-4-[(2R)-2,4-dimethylpiperazin-1-yl]benzoyl]-2,4-dihydro-1,3-benzoxazin-8-yl]-5-fluoro-2-[methyl-[(3R)-oxolan-3-yl]amino]benzoic acid] |
| 8.17 | CN(c1cc(-c2cccc3c2OCN(C(=O)c2c(Cl)cc(-c4cnn(C)c4)cc2Cl)C3)c(F)cc1C(=O)O)C1(C)COC1 [Compound 16-14, 4-[3-[2,6-Dichloro-4-(1-methylpyrazol-4-yl)benzoyl]-2,4-dihydro-1,3-benzoxazin-8-yl]-5-fluoro-2-[methyl-(3-methyloxetan-3-yl)amino]benzoic acid] |
| 8.66 | CC[C@@H](c1cccc2c1C(=O)NN(C(=O)c1c(Cl)cc(-c3cnn(C)c3)cc1Cl)C2)[C@H](C)C(=O)O [Compound 17-1, (2S,3R)-3-[2-[2,6-Dichloro-4-(1-methylpyrazol-4-yl)benzoyl]-4-oxo-1,3-dihydrophthalazin-5-yl]-2-methylpentanoic acid] |
| 8.11 | CC[C@@H](c1cccc2c1CON(C(=O)c1c(Cl)cc(-c3cnn(C)c3)cc1Cl)C2)[C@H](C)C(=O)O [Compound 17-2, (2S,3R)-3-[3-[2,6-Dichloro-4-(1-methylpyrazol-4-yl)benzoyl]-1,4-dihydro-2,3-benzoxazin-8-yl]-2-methylpentanoic acid] |
| 8.01 | CC[C@@H](c1cccc2c1OCN(C(=O)c1c(Cl)cc(-c3cnn(C)c3)cc1Cl)C2)[C@H](C)C(=O)O [Compound 17-3, (2S,3R)-3-[3-[2,6-Dichloro-4-(1-methylpyrazol-4-yl)benzoyl]-2,4-dihydro-1,3-benzoxazin-8-yl]-2-methylpentanoic acid] |
| 8.00 | CC[C@H](CC(=O)O)c1cccc2c1C(=O)NN(C(=O)c1c(Cl)cc(-c3cnn(C)c3)cc1Cl)C2 [Compound 17-4, (3R)-3-[2-[2,6-Dichloro-4-(1-methylpyrazol-4-yl)benzoyl]-4-oxo-1,3-dihydrophthalazin-5-yl]pentanoic acid] |
| 7.77 | CC[C@@H](c1cccc2c1C(=O)NN(C(=O)c1c(Cl)cc(-c3cnn(C)c3)cc1Cl)C2)[C@@H](C)C(=O)O [Compound 17-5, (2R,3R)-3-[2-[2,6-Dichloro-4-(1-methylpyrazol-4-yl)benzoyl]-4-oxo-1,3-dihydrophthalazin-5-yl]-2-methylpentanoic acid] |
| 7.70 | CC[C@@H](c1cccc2c1CCN(C(=O)c1c(Cl)cc(-c3cnn(C)c3)cc1Cl)C2)[C@H](C)C(=O)O [Compound 17-8, (2S,3R)-3-[2-[2,6-Dichloro-4-(1-methylpyrazol-4-yl)benzoyl]-3,4-dihydro-1H-isoquinolin-5-yl]-2-methylpentanoic acid] |
| 7.68 | CCC(CC(=O)O)c1cccc2c1C(=O)NN(C(=O)c1c(Cl)cc(-c3cnn(C)c3)cc1Cl)C2 (stereo not shown) [Compound 17-9, 3-[2-[2,6-Dichloro-4-(1-methylpyrazol-4-yl)benzoyl]-4-oxo-1,3-dihydrophthalazin-5-yl]pentanoic acid] |
| 7.68 | CC[C@@H](c1cccc2c1CCN(C(=O)c1c(Br)cc(-c3cnn(C)c3)cc1Br)C2)[C@H](C)C(=O)O [Compound 17-10, (2S,3R)-3-[2-[2,6-Dibromo-4-(1-methylpyrazol-4-yl)benzoyl]-3,4-dihydro-1H-isoquinolin-5-yl]-2-methylpentanoic acid] |
| 7.24 | Cc1c(C(CC(=O)O)c2cccc3c2CCN(C(=O)c2c(Cl)cc(-c4cnn(C)c4)cc2Cl)C3)ccc2c1nnn2C (stereo not shown) [Compound 17-15, 3-[2-[2,6-Dichloro-4-(1-methylpyrazol-4-yl)benzoyl]-3,4-dihydro-1H-isoquinolin-5-yl]-3-(1,4-dimethylbenzotriazol-5-yl)propanoic acid] |
| 7.13 | Cc1c(C(CC(=O)O)c2cccc3c2CON(C(=O)c2c(Cl)cc(-c4cnn(C)c4)cc2Cl)C3)ccc2c1nnn2C (stereo not shown) [Compound 17-16, 3-[3-[2,6-Dichloro-4-(1-methylpyrazol-4-yl)benzoyl]-1,4-dihydro-2,3-benzoxazin-8-yl]-3-(1,4-dimethylbenzotriazol-5-yl)propanoic acid] |
| 7.01 | Cn1cc(-c2cc(Cl)c(C(=O)N3CCc4c(cccc4-c4ccc(C(=O)O)c(N5CCOCC5)c4)C3)c(Cl)c2)cn1 [Compound 17-18, 4-[2-[2,6-Dichloro-4-(1-methylpyrazol-4-yl)benzoyl]-3,4-dihydro-1H-isoquinolin-5-yl]-2-morpholin-4-ylbenzoic acid] |
| 7.66 | Cn1cc(-c2cc(Cl)c(C(=O)N3CSc4c(cccc4-c4ccc(C(=O)O)c(N5CCOCC5)c4)C3)c(Cl)c2)cn1 [Compound 17-21, 4-[3-[2,6-Dichloro-4-(1-methylpyrazol-4-yl)benzoyl]-2,4-dihydro-1,3-benzothiazin-8-yl]-2-morpholin-4-ylbenzoic acid] |
| 6.96 | COCCOc1cc(Cl)c(C(=O)N2CCc3c(cccc3[C@H](C)[C@H](C)C(=O)O)C2)c(Cl)c1 [Compound 17-23, (2S,3R)-3-[2-[2,6-Dichloro-4-(2-methoxyethoxy)benzoyl]-3,4-dihydro-1H-isoquinolin-5-yl]-2-methylbutanoic acid] |
| 8.39 | C=Cc1cc(C(=O)N2COc3c(cccc3-c3cc(N4CCOCC4)c(C(=O)O)cc3F)C2)c(Cl)cc1OC [Compound 18-1, 4-[3-(2-Chloro-5-ethenyl-4-methoxybenzoyl)-2,4-dihydro-1,3-benzoxazin-8-yl]-5-fluoro-2-morpholin-4-ylbenzoic acid] |
| 8.24 | COc1cc(Cl)c(C(=O)N2COc3c(cccc3-c3cc(N4CCOCC4)c(C(=O)O)cc3F)C2)cc1C1CC1 [Compound 18-2, 4-[3-(2-Chloro-5-cyclopropyl-4-methoxybenzoyl)-2,4-dihydro-1,3-benzoxazin-8-yl]-5-fluoro-2-morpholin-4-ylbenzoic acid] |
| 7.85 | COc1cc(Cl)c(C(=O)N2COc3c(cccc3-c3cc(N4CCOCC4)c(C(=O)O)cc3F)C2)cc1C#N [Compound 18-3, 4-[3-(2-Chloro-5-cyano-4-methoxybenzoyl)-2,4-dihydro-1,3-benzoxazin-8-yl]-5-fluoro-2-morpholin-4-ylbenzoic acid] |
| 8.43 | CCc1cc(C(=O)N2COc3c(cccc3-c3cc(N4CCOCC4)c(C(=O)O)cc3F)C2)c(Cl)cc1OC [Compound 18-4, 4-[3-(2-Chloro-5-ethyl-4-methoxybenzoyl)-2,4-dihydro-1,3-benzoxazin-8-yl]-5-fluoro-2-morpholin-4-ylbenzoic acid] |
| 7.92 | Cn1cc(-c2cc(Cl)c(C(=O)N3COc4c(cccc4-c4ccc(C(=O)O)c(N5CCSCC5)c4)C3)c(Cl)c2)cn1 [Compound 18-5, 4-[3-[2,6-Dichloro-4-(1-methylpyrazol-4-yl)benzoyl]-2,4-dihydro-1,3-benzoxazin-8-yl]-2-thiomorpholin-4-ylbenzoic acid] |
| 8.00 | CN1CCN(c2cc(Cl)c(C(=O)N3COc4c(cccc4-c4cc(N5CCCC5)c(C(=O)O)cc4F)C3)c(Cl)c2)CC1 [Compound 18-6, 4-[3-[2,6-Dichloro-4-(4-methylpiperazin-1-yl)benzoyl]-2,4-dihydro-1,3-benzoxazin-8-yl]-5-fluoro-2-pyrrolidin-1-ylbenzoic acid] |

| Structure (SMILES) | pEC50 |
| --- | --- |
| O=C(O)c1cc(F)c(-c2cccc3c2OCN(C(=O)c2c(Cl)cc(N4CC5(COCCO5)C4)cc2Cl)C3)cc1N1C2CCC1COC2 [Compound 16-15, 4-[3-[2,6-Dichloro-4-(5,8-dioxa-2-azaspiro[3.5]nonan-2-yl)benzoyl]-2,4-dihydro-1,3-benzoxazin-8-yl]-5-fluoro-2-(3-oxa-8-azabicyclo[3.2.1]octan-8-yl)benzoic acid] | 8.52 |
| N#CC1(F)CN(c2cc(Cl)c(C(=O)N3COc4c(cccc4-c4cc(N5C6CCC5COC6)c(C(=O)O)cc4F)C3)c(Cl)c2)C1 [Compound 16-16, 4-[3-[2,6-Dichloro-4-(3-cyano-3-fluoroazetidin-1-yl)benzoyl]-2,4-dihydro-1,3-benzoxazin-8-yl]-5-fluoro-2-(3-oxa-8-azabicyclo[3.2.1]octan-8-yl)benzoic acid] | 7.89 |
| COCC(F)(F)CN1CC2(C1)CN(c1cc(Cl)c(C(=O)N3COc4c(cccc4-c4cc(N5C6CCC5COC6)c(C(=O)O)cc4F)C3)c(Cl)c1)C2 [Compound 16-17, 4-[3-[2,6-Dichloro-4-[6-(2,2-difluoro-3-methoxypropyl)-2,6-diazaspiro[3.3]heptan-2-yl]benzoyl]-2,4-dihydro-1,3-benzoxazin-8-yl]-5-fluoro-2-(3-oxa-8-azabicyclo[3.2.1]octan-8-yl)benzoic acid] | 8.57 |
| COc1cc2c(c(-c3cc(N4C5CCC4COC5)c(C(=O)O)cc3F)c1)OCN(C(=O)c1c(Cl)cc(N3CC(OC)C3)cc1Cl)C2 [Compound 18-7, 4-[3-[2,6-Dichloro-4-(3-methoxyazetidin-1-yl)benzoyl]-6-methoxy-2,4-dihydro-1,3-benzoxazin-8-yl]-5-fluoro-2-(3-oxa-8-azabicyclo[3.2.1]octan-8-yl)benzoic acid] | 7.77 |

Source: patent US20250171457A1, “NITROGEN-CONTAINING HETEROCYCLIC COMPOUND HAVING NRF2 ACTIVATION EFFECT” (CHUGAI SEIYAKU KABUSHIKI KAISHA, priority 2022, published 2025)
